Test results published in patent US20080200563A1, “Use of Compounds Containing Thiol Groups as Efflux Pump Inhibitors” (ThioMatrix Forschungs- und Beratungs- GmbH, priority 2004, published 2008).

Molecular target: T1, efflux pump P-glycoprotein (Cavia porcellus, UniProt H0VLE6)
T1 construct: The small intestine of guinea pigs was immediately removed after sacrificing animals, cut lengthwise and rinsed; from tissue; host or cells: guinea pig small intestinal mucosa mounted in Ussing chambers
Assay: Permeation studies with rhodamine 123 across guinea pig small intestinal mucosa in Ussing chambers (efflux pump inhibition)
Assay type: in vitro ADME
Details: 0.5% (m/v)
Protocol: The small intestine of guinea pigs was immediately removed after sacrificing animals, cut lengthwise and rinsed with sterile 0.9% sodium chloride solution. Thereafter it was mounted in Ussing chambers. The incubation medium was a 50 mM Bis-Tris (bis[2-hydroxyethyl]imino-tris[hydroxymethyl]methane) pH 6.0 buffer containing 250 mM NaCl, 2.6 mM MgSO4, 10 mM KCl, 40 mM glucose and 50 mM NaHCO3. […] J Pharm Sei. […] At predetermined time points samples were withdrawn from the acceptor chamber—facing to the basolateral site of the mucosa and replaced by fresh incubation medium. […] In addition all permeation studies described above were also performed with the mucosa being mounted in the opposite direction, so that the donor compartment is facing the basolateral site of the mucosa. In parallel, the same experiments were performed with the only difference that the donor- and acceptor compartment contained additionally glutathione in a concentration of 0.5%.
In order to compare the inhibitory effect of glutathione and/or polythiol-compounds with well-known inhibitors on efflux pumps of the gastrointestinal mucosa, they were tested in parallel.

T1 sequence (H0VLE6 1-1243): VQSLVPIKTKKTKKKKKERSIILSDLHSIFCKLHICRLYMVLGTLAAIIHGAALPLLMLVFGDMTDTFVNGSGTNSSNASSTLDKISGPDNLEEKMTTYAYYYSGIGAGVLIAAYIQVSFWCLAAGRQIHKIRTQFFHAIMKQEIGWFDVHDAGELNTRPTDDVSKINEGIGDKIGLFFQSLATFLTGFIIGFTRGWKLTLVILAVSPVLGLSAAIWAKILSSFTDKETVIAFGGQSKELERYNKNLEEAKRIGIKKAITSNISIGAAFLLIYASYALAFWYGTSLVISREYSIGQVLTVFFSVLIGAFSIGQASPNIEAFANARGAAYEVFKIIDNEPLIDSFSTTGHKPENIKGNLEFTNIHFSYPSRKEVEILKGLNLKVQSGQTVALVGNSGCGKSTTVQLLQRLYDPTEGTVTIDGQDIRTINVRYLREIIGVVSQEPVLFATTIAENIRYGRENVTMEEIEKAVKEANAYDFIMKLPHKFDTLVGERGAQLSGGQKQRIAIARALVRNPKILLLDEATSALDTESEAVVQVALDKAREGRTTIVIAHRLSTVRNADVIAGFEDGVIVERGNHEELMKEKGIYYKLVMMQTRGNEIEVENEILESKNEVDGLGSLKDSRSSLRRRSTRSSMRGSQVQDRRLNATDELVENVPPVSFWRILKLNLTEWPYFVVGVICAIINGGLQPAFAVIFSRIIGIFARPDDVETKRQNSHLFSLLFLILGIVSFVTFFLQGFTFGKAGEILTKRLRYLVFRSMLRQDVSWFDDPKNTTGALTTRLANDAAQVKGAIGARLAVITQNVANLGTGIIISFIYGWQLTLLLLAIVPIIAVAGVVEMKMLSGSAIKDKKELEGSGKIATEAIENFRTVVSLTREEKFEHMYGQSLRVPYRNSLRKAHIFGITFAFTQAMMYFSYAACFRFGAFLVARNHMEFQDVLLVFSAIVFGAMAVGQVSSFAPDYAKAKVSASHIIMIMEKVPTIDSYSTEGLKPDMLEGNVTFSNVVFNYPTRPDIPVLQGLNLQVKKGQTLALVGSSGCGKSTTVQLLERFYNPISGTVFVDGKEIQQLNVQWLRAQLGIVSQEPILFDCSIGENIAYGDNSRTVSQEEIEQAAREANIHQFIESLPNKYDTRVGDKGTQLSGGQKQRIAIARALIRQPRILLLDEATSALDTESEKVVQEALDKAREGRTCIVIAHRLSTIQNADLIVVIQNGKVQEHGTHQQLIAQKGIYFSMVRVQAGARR

SMILES: N[C@@H](CCC(=O)N[C@@H](CS)C(=O)NCC(=O)O)C(=O)O [Glutathione, glutathione]
- effect on rhodamine permeation at 4° C. compared with 37° C. (4° C.): dramatically lower effect
- permeation of rhodamine in the absorptive direction in the presence of the compound (37° C., apical to basolateral): significantly improved
- permeation of rhodamine in the secretory direction in the presence of the compound (37° C., basolateral to apical): significantly reduced
- efflux pump inhibitory effect (37° C., p<0.05, rhodamine 123): statistically significant
